Test results reported in US7727960B2, “C5a receptor antagonists” (Jerini AG, priority 2003, dated 2010).
Non-standard residues stand in square brackets, D forms with d. Residues, ends and D or L forms follow the SMILES beside them. Bta = N[C@@H](Cc1csc2ccccc12)C(=O)O; d(hLeu) = CC(C)CC[C@@H](N)C(=O)O; Orn = NCCC[C@H](N)C(=O)O

Key:
C5aR = biological target: T1, C5aR (Homo sapiens, UniProt P21730); experiment: Prior-art antagonistic activity (WO 03/033528); settings: WO 03/033528 values
T1 construct: derived from measurements with isolated membranes from polymorphonuclear neutrophilic granulocytes (PMN membranes); host or cells: isolated membranes of polymorphonuclear neutrophilic granulocytes (PMN membranes)
T1 sequence (P21730 1-350): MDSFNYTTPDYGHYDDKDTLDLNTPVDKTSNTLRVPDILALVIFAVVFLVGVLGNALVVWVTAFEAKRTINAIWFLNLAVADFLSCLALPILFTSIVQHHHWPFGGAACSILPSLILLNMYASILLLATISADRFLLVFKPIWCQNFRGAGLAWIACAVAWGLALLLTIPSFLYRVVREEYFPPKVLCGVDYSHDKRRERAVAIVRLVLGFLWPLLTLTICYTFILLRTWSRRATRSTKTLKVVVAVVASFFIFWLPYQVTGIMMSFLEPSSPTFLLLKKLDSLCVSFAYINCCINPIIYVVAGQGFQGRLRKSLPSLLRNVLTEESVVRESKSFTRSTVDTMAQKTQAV
Source text: In WO 03/033528 single substitutions of various amino acids in the molecule Ac-Phe[Orn-Pro-cha-Trp-Arg](compound 1) [SEQ ID NO: 6] are reported. A decrease of the affinity to the C5aR and a decrease in antagonistic potency is described for the substitution of the Arg with homoarginine (compound 44), citrulline (compound 45), lysine ([…]), or canavanine (compound 47). […] No IC50 value is reported for canavanine. […] Apart from the effects of charged arginine substitutions (homoarginine and lysine), in particular the strong decrease in binding strength upon exchange of the charged arginine (0.45 μM) by the uncharged citrulline (6 μM) is remarkable. The antagonistic activity is reduced even more (Arg: 0.028 μM, Cit: 0.690 μM). […] This also reflects that the size of the side chain itself is not sufficient as a criterium for predicting the activity. WO 03/033528 sets forth that the arginine (1) substitution to citrulline (45) results in a compound with allegedly remarkable antagonistic properties (p. 44, line 28ff). However, the cut off rate for what is remarkable, is chosen arbitrarily and the significant 24-fold drop in activity underlines the in the prior art well known importance of the C-terminal arginine in the peptidic C5aR antagonists. […]

human C5aR (CD88) [1] = biological target: T2, human C5aR (CD88) (Homo sapiens, UniProt P21730); experiment: Determination of EC50 values in an enzyme release assay (agonistic activity, no C5a added); format: cell-based; settings: cellular assay, up to a concentration of at least 1430 nM
T2 construct: expressed in transfected cells; host or cells: rat basophilic leukemia cells (RBL)
T2 sequence (P21730 1-350): T1 sequence (P21730 1-350)
Description: The determination of the EC50 value was performed in a way similar to the procedure described in example 11, with the only exception that 30 μl of the compound to be tested were mixed with 75 μl of the cell suspension described in example 11. There was no preincubation or addition of C5a for stimulation of the enzyme release.

Female Wistar rats = experiment: Model of C5a induced neutropenia; format: in vivo; settings: i.v. infusion 10 min before 2 μg/kg hrC5a i.v., FIG. 2
Source text: C5a induced neutropenia is a model for shock induced diseases (e.g. septic shock), where the systemic role of C5a such as neutropenia, blood pressure decrease, plays an important role. The reason for the decrease of the neutrophils in the circulation is their C5a triggered binding to the vessel walls. This process of neutrophil recruitment is also playing an important role in many other diseases like reperfusion injury. This model was also described by Short et al. (1999 British Journal of Pharmacology 125: 551-554).
Female Wistar rats were anaesthetized i.p. with ketamine (80 mg/kg) and xylazine (12 mg/kg). A catheter was introduced into the jugular veine and the animals were subjected to the following procedure: • 1. Rats were pre-treated with vehicle or compound 149 which is a compound according to the invention, via i.v. infusion. A blood sample was taken one minute prior to that. • 2. 10 min after compound infusion the rats were treated with 2 μg/kg hrC5a i.v. (2 μg/kg over 1 min)
Blood samples are taken shortly before and at various times after hrC5a administration. • 3. […]
White blood cell count was measured with a haematology-cell-counter. […]
The differential cell count is determined as the sum of neutrophils, eosinophils, basophils, lymphocytes and monocytes of 100 cells. Then the percentage of the neutrophils in relation to all white blood cells is calculated.

human C5aR (CD88) [2] = biological target: T2, human C5aR (CD88); experiment: Determination of the IC50 value in an enzyme release assay (functional assay, antagonistic activity); format: cell-based
BALB/c mice = experiment: Model of immune complex mediated peritonitis (reverse passive Arthus reaction); format: in vivo; settings: 1 mg/kg i.v. 15 min before Arthus reaction, lavage after 6 h, FIG. 1
Description: Immune complex mediated peritonitis is part of the pathological conditions of immune complex related diseases such as vasculitis, nephritis, arthritis, and farmer's disease. The corresponding animal model was described by Heller et al. (1999 Journal of Immunology 163: 985-994) and takes advantage of the pro-inflammatory effect of immune complexes formation from i.v. administration of the antigen and i.p. administration of the antibody.
BALB/c mice (6-8 weeks old) were treated i.v. with the compound 149 (1 mg/kg body weight in 200 μl vehicle) which is one in accordance with the present invention, 15 min before the initiation of the reverse passive Arthus reaction. Arthus reaction was induced by the administration of OVA (20 mg/kg i.v. in 200 μl PBS) and polyclonal anti-OVA Ab (rabbit; 800 μg/Maus i.p). After 6 h a peritoenal lavage with 2 ml PBS 0.1% BSA was done. The collected PE-cells were stained with DIFF-Quick. At least 20 visual fields (100× magnification) were analysed for the presence of neutrophils.

| drop in activity on substitution of arginine by citrulline (C5aR) | SMILES | agonistic activity (in words) (human C5aR (CD88) [1]) | C5a-induced neutropenia (Female Wistar rats) | inhibitory activity (in words) (human C5aR (CD88) [2]) | influx of pro-inflammatory cells (neutrophils) into the peritoneum (BALB/c mice) |
| --- | --- | --- | --- | --- | --- |
| 24 fold | CC(=O)N[C@@H](Cc1ccccc1)C(=O)N[C@H]1CCCNC(=O)[C@H](CCCNC(N)=O)NC(=O)[C@H](Cc2c[nH]c3ccccc23)NC(=O)[C@@H](CC2CCCCC2)NC(=O)[C@@H]2CCCN2C1=O [Compound 10, Ac-Phe-[Orn-Pro-cha-Trp-Cit]] | – | – | – | – |
| – | CC(=O)N[C@@H](Cc1ccccc1)C(=O)N[C@@H](CCCN)C(=O)N1CCC[C@H]1C(=O)N[C@H](CCC(C)C)C(=O)N[C@@H](Cc1csc2ccccc12)C(=O)N[C@@H](Cc1ccccc1)C(N)=O [Compound 149, Ac-Phe-Orn-Pro-hle-Bta-Phe-NH2] (Ac-F[Orn]P[d(hLeu)][Bta]F-NH2) | pure antagonists | reduces significantly C5a-induced neutropenia | noteworthy inhibitory activity | reduction of the influx of pro-inflammatory cells into the peritoneum |
